Laboratory results published in patent publication US4526894A, “Pharmaceutically active 4-hydroxy-3-benzoyl-2-quinolone derivatives” (Nippon Shinyaku Co. Ltd., priority 1982, dated 1985).

How the values were obtained:
[1] = test system: male mice; assay: Acute oral toxicity in mice (lethal ratio); type: in vivo; settings: 400 mg/kg oral, two weeks, four mice per group
Protocol: Acute toxicity was determined two weeks after oral administration of 400 mg/kg to male mice. Four mice (denominator) are used in each group and the dead numbers are given as the numerator. The compounds of the present invention show little, if any, toxicity.
Lethal ratios for all other compounds are 0/4 at doses of […]. It is therefore apparent that they are all safe compounds.

[2] = test system: SRS-A (slow reacting substance of anaphylaxis); assay: Anti-SRS-A action using isolated ileus of guinea pigs
Protocol: Anti-SRS-As action (An anti-action against slow reacting substance of anaphylaxis).
Hartley strain male guinea pigs (300 to 350 grams body weight) are killed and 1.0 to 1.5 cm of ileus is immeidiately excised from ileocecal parts and is suspended in 10 ml of Tyrode solution (95% O2 -5% CO2 saturation) containing 10^-7 g/ml of atropine and 10^-6 g/ml of pyrilamine. SRS-A (20 units) (the amount of SRS-A showing the same shrinkage as 5 ng of histamine is defined as 1 unit) prepared by using sensitized guinea pig lung is given to cause shrinkage there. Then antagonistic action of test compounds treated five minutes ago against the shrinkage is measured and recorded via isotonic transducer.
Inhibition Ratio of Test Compd (%)=(1-A'/A)×100
in which A' is a height of shrinkage of SRS-A+test compound and A is that of SRS-A.

[3] = test system: passive cutaneous anaphylaxis (DNP-As antigen) in Wister strain rats; assay: passive cutaneous anaphylaxis (PCA) assay in rats; type: in vivo; settings: 10 mg/kg oral, one hour before antigen; for inhibition in vivo at 10 mg/kg: Rattus norvegicus, po, 1 h, read-out: PCA Inhibition Ratio %
Protocol: (i) Antiserum abundant in homocytotropic antibody is prepared by the same method as Tada and Okumura did (cf. Journal of Immunology, vol. 106, page 1002, 1976). Thus, 1 mg (calculated as an amount of protein) of DNP-As (2,4-dinitrophenyl-coupled ascaris extract) prepared by methods of Strejan and Campbell (Journal of Immunology, vol. 98, p. 893, 1971) and of Eisen (Journal of Amer. Chem. Soc., vol. 85, p 4593, 1953) and 1×10^10pertussis vaccine are administered to each paw of Wister strain rats (180 to 200 grams body weights) by dividing the dose by four. Five days later, 0.5 mg of DNP-As is administered into muscle of back. Eight days later from the initial immunization, blood is taken from descending aorta under anesthetizing with ether, the resulting serum is stored at -80° and is melted before use.
(ii) Effect of tested compounds is investigated as follows:
Anti-serum obtained by the method (i) is diluted with physiological saline solution double by double successively and 0.05 ml of each diluted solution is administered into back of Wister strain rats (140 to 160 grams body weight) subcutaneously. After 72 hours, a solution of 2 mg (calculated as protein) of DNP-As and 2.5 mg of Evans Blue dissolved in 1 ml of physiological saline solution is administered intraveously at a dose of 5 ml/kg. After 30 minutes from antigen solution administration, the animals are killed and diameters of blue spots appeared at the place where antiserum is administered are measured. The PCA test is conducted by the same method as already described using a diluted solutions of antiserum which always show 10 mm or more of spot diameters and the effect of the test compounds is judged. Thus antiserum diluted solutions are administered to two places in back. Test compounds are administered orally at the dose of 10 mg/kg one hour before administration of antigen solution. From the skin of reacted parts of killed animals, leaked or emitted dyestuff is extracted and the amount of the dyestuff is measured. The inhibition ratio is calculated by the following expression:
Inhibition Ratio=(1-A'/A)×100
in which A' is an amount of dyestuff in the group treated with the test compounds and A is that in the control group.

[4] = test system: carrageenin edema in SD-strain rats; assay: Carrageenin edema at hind foot of rats (anti-inflammatory action); type: in vivo, rat; settings: Rattus norvegicus, po, 3 h, 200 mg/kg per os one hour before carrageenin; 3 hours after; read-out: % Inhibition of carrageenin edema
Protocol: The anti-inflammatory action of the compounds of the present invention were evaluated by measuring the inhibition against carrageein edema as set forth below.
Carrageenin edema at hind foot of rats:
SD-strain rats of body weights of around 150 grams were used, each group consisting of five rats. A solution (0.1 ml) of 0.5% carrageenin dissolved in physiological saline water was hypodermically injected into right hind foot pat of the rats and, one hour prior to the injection of carrageenin, 200 mg/kg of test compound was given per os. Foot volumes of the rats before the carrageenin treatment and those of three hours after the treatment were measured and the differences were compared with those of the control group to determine the effect of the compounds.

[5] = test system: allergic asthma; settings: cited from earlier work
[6] = 10^-6 M; guinea pig ileus, SRS-A 20 units; 5 min, 1 µM
[7] = 10^-7 M; guinea pig ileus, SRS-A 20 units; 5 min, 0.1 µM

With `O=C(c1ccccc1)c1c(O)c2cccc(C(=O)O)c2[nH]c1=O` [Example 16, 3-benzoyl-4-hydroxy-2-quinolone-8-carboxylic acid] the “Lethal Ratio (dead/treated)” value [1] was 0/4, the “SRS-A Inhibition Ratio %” value [2, 6] was 22.4% and the inhibition in vivo at 10 mg/kg [3] was 30.9%.

With `Cc1cccc2c(O)c(C(=O)c3ccccc3)c(=O)[nH]c12` [Example 19, 3-benzoyl-4-hydroxy-8-methyl-2-quinolone] the “Lethal Ratio (dead/treated)” value [1] was 0/4, the “SRS-A Inhibition Ratio %” value [2, 6] was 19.0% and the inhibition in vivo at 200 mg/kg [4] was 70%. It also gave an inhibition in vivo at 10 mg/kg [3] of 29.6%.

In the case of `CCCCCCc1ccc2[nH]c(=O)c(C(=O)c3ccccc3)c(O)c2c1` [Example 23, 3-benzoyl-6-n-hexyl-4-hydroxy-2-quinolone], the “Lethal Ratio (dead/treated)” value [1] is reported as 0/4, the “SRS-A Inhibition Ratio %” value ([2]; 10^-6 M, guinea pig ileus, SRS-A 20 units, 5 min, 1 µM) is reported as 83.3% and the “SRS-A Inhibition Ratio % (value in parentheses)” value [2, 7] is reported as 32.8%. The inhibition in vivo at 200 mg/kg [4] was 15.9% and the “PCA Inhibition Ratio %” value ([3]; rat, 10 mg/kg) was 13.1%.

With `COc1ccc(C(=O)c2c(O)c3ccccc3[nH]c2=O)c(OC)c1OC` [Example 32, 4-hydroxy-3-(2,3,4-trimethoxybenzoyl)-2-quinolone] the “Lethal Ratio (dead/treated)” value [1] was 0/4, the “SRS-A Inhibition Ratio %” value [2, 6] was 100% and the “SRS-A Inhibition Ratio % (value in parentheses)” value [2, 7] was 83.3%. The inhibition in vivo at 10 mg/kg [3] was 16.3%.

With `O=C(c1ccccc1Cl)c1c(O)c2ccccc2[nH]c1=O` [Example 35, 3-(2-chlorobenzoyl)-4-hydroxy-2-quinolone] the “Lethal Ratio (dead/treated)” value [1] was 0/4, the “SRS-A Inhibition Ratio %” value [2, 6] was 32.6% and the inhibition in vivo at 10 mg/kg [3] was 45.6%.

For `O=C(c1ccc([N+](=O)[O-])cc1)c1c(O)c2ccccc2[nH]c1=O` [Example 47, 4-hydroxy-3-(4-nitrobenzoyl)-2-quinolone], the “Lethal Ratio (dead/treated)” value [1] was 0/4, the “SRS-A Inhibition Ratio %” value [2, 6] was 22.0% and the inhibition in vivo at 10 mg/kg [3] was 49.4%.

For `O=C(O)c1cc(=O)c2c(OCC(O)COc3cccc4oc(C(=O)O)cc(=O)c34)cccc2o1` [Sodium chromoglicate], the “duration of action (in words)” value ([5]; in vivo) is given as “rather short”, the “effect on allergic asthma (in words)” value ([5]; in vivo) is given as “effective for allergic asthma” and the “effect on oral administration (in words)” value ([5]; oral administration) is given as “does not show any effect on oral administration”.
